Results on 19 molecules are retold here after US10221171B2, “Oxathiazole thiazolium Hsp 70 inhibitors” (THE REGENTS OF THE UNIVERSITY OF CALIFORNIA, priority 2015, dated 2019).

Common to all, as to assay type: cell-based
For one experiment, the system named is MDA-MB-231. Description: MTT cell viability assay, MDA-MB-231. The following applies: Homo sapiens.
Another experiment concerns MCF-7. Description: MTT cell viability assay, MCF-7. To be noted: Homo sapiens, MTT, 72-hour incubation, read-out: IC50/μM MCF-7. (Tetrazolium dyes change colour on reduction, which living cells bring about.)
In a further experiment the test system is MEF (C57BL/6). Description: MTT cell viability assay, MEF (C57BL/6). The following applies: Mus musculus.
[1] abbreviates: MTT, 72-hour incubation, read-out: IC50/μM MEF (C57BL/6).
The mark [2] stands for this setting: 72 h, read-out: IC50/μM MEF (C57BL/6), MTT, 72-hour incubation.

Read-outs that look alike come from different tables or passages of the source. Some results are limits rather than exact numbers.

In the case of `CCn1c(=O)/c(=C2\Sc3ccc(C)cc3N2C)s/c1=C\c1scc[n+]1Cc1ccccc1C` [JG-366], the IC50 in the experiment with MDA-MB-231 (MDA-MB-231, 72-hour incubation) amounted to 0.22 ± 0.02 µM; in the experiment on MCF-7 (MCF7), 0.19 ± 0.01 µM; in the experiment on MEF (C57BL/6) (setting [1]), 0.99 ± 0.04 µM.
`CCn1c(=O)/c(=C2\Sc3cc(C)ccc3N2C)s/c1=C\c1scc[n+]1CCc1ccccc1OC` [JG-390]: the IC50 with MDA-MB-231 (MDA-MB-231, 72-hour incubation) is 0.12 ± 0.01 µM; in the experiment on MCF-7 (MCF7) it was 0.31 ± 0.04 µM; in the experiment on MEF (C57BL/6) (setting [1]), 1.2 ± 0.1 µM.
For `CCn1c(=O)/c(=C2\Sc3cc(OC)ccc3N2C)s/c1=C\c1scc[n+]1CCc1ccc(Cl)cc1` [JG-396], the IC50 was 0.2 ± 0.03 µM in the experiment with MDA-MB-231 (MDA-MB-231, 72-hour incubation); 1.7 ± 0.3 µM in the experiment with MCF-7 (MCF7); 4 ± 0.2 µM in the experiment on MEF (C57BL/6) (setting [1]).
For `CCn1c(=O)/c(=C2\Sc3cc(C)ccc3N2C)s/c1=C\c1scc[n+]1Cc1ccccc1C(F)(F)F` [JG-285] the same measures were 0.062 ± 0.01 µM, 0.078 ± 0.003 µM and 0.66 ± 0.06 µM.
The corresponding values for `CCn1c(=O)/c(=C2\Sc3ccc(C)cc3N2C)s/c1=C\c1scc[n+]1Cc1ccccc1C(=O)OC` [JG-364] are 0.11 ± 0.01 µM, 0.15 ± 0.01 µM and 2.3 ± 0.2 µM.
Regarding `CCn1c(=O)/c(=C2\Sc3cc(OC)ccc3N2C)s/c1=C\c1scc[n+]1Cc1ccsc1C(=O)OC` [JG-305], the IC50 in the experiment on MDA-MB-231 (MDA-MB-231, 72-hour incubation) is 0.16 ± 0.01 µM; in the experiment with MCF-7 (MCF7) it was 0.12 ± 0.01 µM; in the experiment with MEF (C57BL/6) (setting [1]) it was 1 ± 0.1 µM.
The corresponding values for `CCn1c(=O)/c(=C2\Sc3cc(OC)ccc3N2C)s/c1=C\c1scc[n+]1CCc1ccccc1OC` [JG-397] are 0.083 ± 0.007 µM, 0.08 ± 0.008 µM and 1.3 ± 0.1 µM.
For `CCn1c(=O)/c(=C2\Sc3cc(SC)ccc3N2C)s/c1=C\c1scc[n+]1Cc1c(Cl)cccc1Cl` [JG-354] the same measures were 0.096 ± 0.01 µM, 0.13 ± 0.01 µM and 1.1 ± 0.1 µM.
`CCn1c(=O)/c(=C2\Sc3ccc(C)cc3N2C)s/c1=C\c1scc[n+]1Cc1ccccc1SC(F)(F)F` [JG-363]: the IC50 amounted to 0.084 ± 0.012 µM with MDA-MB-231 (MDA-MB-231, 72-hour incubation); 0.067 ± 0.005 µM in the experiment on MCF-7 (MCF7); 2.1 ± 0.1 µM in the experiment on MEF (C57BL/6) (setting [1]).
As for `C=CCn1c(=O)/c(=C2\Sc3cc(Cl)ccc3N2C)s/c1=C\c1scc[n+]1Cc1ccccc1` [JG-280], the IC50 came to 0.1 ± 0.01 µM in the experiment with MDA-MB-231 (MDA-MB-231, 72-hour incubation); 0.17 ± 0.02 µM with MCF-7 (MCF7, 72 h); 2.4 ± 0.1 µM in the experiment with MEF (C57BL/6) (setting [2]).
With `CCn1c(=O)/c(=C2\Sc3cc(C(C)C)ccc3N2C)s/c1=C\c1scc[n+]1Cc1ccccc1C` [JG-324], the IC50 in the experiment with MDA-MB-231 (MDA-MB-231, 72-hour incubation) is 0.15 ± 0.02 µM; in the experiment on MCF-7 (MCF7) it was 0.17 ± 0.02 µM; in the experiment on MEF (C57BL/6) (setting [1]), 1.9 ± 0.1 µM.
As to `CCn1c(=O)/c(=C2\Sc3cc(OC)ccc3N2C)s/c1=C\c1scc[n+]1Cc1ccccc1OC` [JG-352], the IC50 amounted to 0.062 ± 0.006 µM with MDA-MB-231 (MDA-MB-231, 72 h, 72-hour incubation); 0.076 ± 0.005 µM in the experiment with MCF-7 (MCF7, 72 h); 0.77 ± 0.03 µM with MEF (C57BL/6) (setting [2]).
In the case of `CCn1c(=O)/c(=C2\Sc3cc(F)ccc3N2C)s/c1=C\c1scc[n+]1Cc1ccccc1S(C)(=O)=O` [JG-288], the IC50 in the experiment with MDA-MB-231 (MDA-MB-231, 72-hour incubation) was 0.64 ± 0.08 µM; in the experiment with MCF-7 (MCF7) it was 1.97 ± 0.11 µM; with MEF (C57BL/6) (setting [1]), above 10 µM.
On to `CCn1c(=O)/c(=C2\Sc3cc(C)ccc3N2C)s/c1=C\c1scc[n+]1CCc1cccc(Cl)c1` [JG-382], for which the IC50 was 0.46 ± 0.06 µM with MDA-MB-231 (MDA-MB-231, 72-hour incubation); 0.59 ± 0.03 µM with MCF-7 (MCF7); 1.2 ± 0.1 µM in the experiment with MEF (C57BL/6) (setting [1]).
For `CCn1c(=O)/c(=C2\Sc3cc(F)ccc3N2C)s/c1=C\c1scc[n+]1Cc1ccccc1OC` [JG-264], the IC50 was 0.24 ± 0.03 µM in the experiment with MDA-MB-231 (MDA-MB-231, 72-hour incubation); 0.49 ± 0.04 µM in the experiment on MCF-7 (MCF7); 1.4 ± 0.1 µM with MEF (C57BL/6) (setting [1]).
Regarding `CCn1c(=O)/c(=C2\Sc3cc(Cl)ccc3N2C)s/c1=C\c1scc[n+]1Cc1csc(NC(C)=O)n1` [JG-261], the IC50 in the experiment with MDA-MB-231 (MDA-MB-231, 72-hour incubation) is above 20 µM; with MCF-7 (MCF7) it was above 5 µM; in the experiment on MEF (C57BL/6) (setting [2]) it was 4.2 ± 0.6 µM.
Consider `CCn1c(=O)/c(=C2\Sc3cc(C(C)C)ccc3N2C)s/c1=C\c1scc[n+]1Cc1ccccc1Cl` [JG-323], for which the IC50 was 0.19 ± 0.01 µM in the experiment on MDA-MB-231 (MDA-MB-231, 72-hour incubation); 0.12 ± 0.01 µM with MCF-7 (MCF7); 0.53 ± 0.02 µM in the experiment on MEF (C57BL/6) (setting [1]).
For `CCn1c(=O)/c(=C2\Sc3cc(Cl)ccc3N2C)s/c1=C\c1scc[n+]1[C@H](C)c1ccccc1` [JG-339] the same measures were 0.19 ± 0.02 µM, 0.37 ± 0.04 µM and 1.5 ± 0.08 µM.
For the molecule `CCn1c(=O)/c(=C2\Sc3cc(C(C)C)ccc3N2C)s/c1=C\c1scc[n+]1Cc1ccc(C(F)(F)F)o1` [JG-328], the IC50 stood at 0.23 ± 0.02 µM in the experiment with MDA-MB-231 (MDA-MB-231, 72-hour incubation); 0.14 ± 0.02 µM with MCF-7 (MCF7); 0.7 ± 0.03 µM with MEF (C57BL/6) (setting [1]).
